According to publication PMC4026384, “Antibacterial Activity of THAM Trisphenylguanide against Methicillin-Resistant Staphylococcus aureus” (PLoS ONE, 2014):
In brackets after ≈: the same amount, converted by molar mass.

What was measured:
[1] = test system: Acinetobacter baumannii ATCC 19606; assay: Minimum inhibitory concentration (microdilution); assay type: cell-based; details: A. baumannii ATCC 19606; LB media; median of at least 3 determinations
Experimental: (§1) Minimum inhibitory concentration (MIC) values were determined for those compounds showing the most antibacterial activity in the bacterial viability assays (see Supplemental Materials) against each of the strains of bacteria using a microdilution method in 96 well plates with LB media according to guidelines published by the British Society for Antimicrobial Chemotherapy. Minimum bactericidal concentrations (MBC) were determined by plating 10 µL and 100 µL from each well showing no signs of growth after overnight incubation of the MIC plates and determining the minimum concentration showing a 3-log reduction of viable bacteria. MIC and MBC were also determined in cation-adjusted Mueller-Hinton broth (Hardy Diagnostics, Santa Maria, CA) for some compounds and strains.

[2] = test system: Enterococcus faecalis ATCC V583; assay: Minimum inhibitory concentration (microdilution); assay type: cell-based; details: E. faecalis V583; LB media; median of at least 3 determinations
Experimental: as §1

[3] = test system: Enterococcus faecalis MSU#10; assay: Minimum inhibitory concentration (microdilution); assay type: cell-based; details: E. faecalis MSU#10; LB media; median of at least 3 determinations
Experimental: as §1

[4] = test system: Escherichia coli (strain K91); assay: Minimum inhibitory concentration (microdilution); assay type: cell-based; details: E. coli K91; LB media; median of at least 3 determinations
Experimental: as §1

[5] = test system: Pseudomonas aeruginosa (strain PA01); assay: Minimum inhibitory concentration (microdilution); assay type: cell-based; details: P. aeruginosa PA01; LB media; median of at least 3 determinations
Experimental: as §1

[6] = test system: Staphylococcus aureus RN4220; assay: Minimum inhibitory concentration (microdilution); assay type: cell-based; details: S. aureus RN4220; LB media; median of at least 3 determinations
Experimental: as §1

MRSA strain LAC, USA300 = assay: Minimum inhibitory concentration (microdilution); assay type: cell-based, Staphylococcus aureus; details: MRSA USA300; LB media; median of at least 3 determinations
Experimental: as §1

[7] = test system: HaCaT human keratinocytes; assay: Cell toxicity assay (MTS); assay type: cell-based; details: for CC50: MTS assay, concentration which killed 50% of the cells
Experimental: The HaCaT cell line was grown in Epilife medium (MEPI500Ca) with human keratinocyte growth supplement (Invitrogen, San Diego, CA). Both types of cells were harvested using Tryspin/EDTA and diluted to 1×10^5 cells per well in a 96-well plate. Ten concentrations covering five orders of magnitude were tested with six replicates per concentration. […] MTS/PMS solution (Promega, Madison, WI) was added to the wells and absorbance was measured at 490 nm two to four hours later. Data was analyzed using GraphPad Prism version 5.0 (GraphPad Software, La Jolla, CA) using a variable slope inhibition dose response curve.

E. coli K91 = assay: Bacterial viability assay; assay type: cell-based, Escherichia coli; details: one hour in PBS, CFU, ± SEM
Experimental: (§2) Supplementary file pone.0097742.s003.doc: Table S1 Bacterial viability assays. Bacteria were grown at 37°C to mid-log phase (OD600 ∼0.4). The bacteria were diluted to approximately 10^4 to 10^5 colony forming units (CFU) per milliliter and added to a solution of phosphate buffered saline (PBS, 16 mM phosphate, 0.14 M NaCl, pH 7.2) containing the compound at varied concentrations. Samples were incubated at 37°C for one hour and then plated on Luria Bertani (LB) agar at appropriate dilutions in PBS. The plates were incubated overnight at 37°C and colonies enumerated the following day. IC50s were calculated from graphs of CFU as a function of compound concentration. Chlorhexidine was used as a positive control. […] (DOC) Click here for additional data file.
(§3) Bacterial viability assays. Bacteria were grown at 37°C to mid-log phase (OD600 ~0.4). The bacteria were diluted to approximately 10^4 to 10^5 colony forming units (CFU) per milliliter and added to a solution of phosphate buffered saline (PBS, 16 mM phosphate, 0.14 M NaCl, pH 7.2) containing the compound at varied concentrations. Samples were incubated at 37°C for one hour and then plated on Luria Bertani (LB) agar at appropriate dilutions in PBS. The plates were incubated overnight at 37°C and colonies enumerated the following day. IC50s were calculated from graphs of CFU as a function of compound concentration. Chlorhexidine was used as a positive control.

P. aeruginosa PA01 = assay: Bacterial viability assay; assay type: cell-based, Pseudomonas aeruginosa; details: one hour in PBS, CFU, ± SEM
Experimental: as §2, §3

A. baumannii ATCC 19606 = assay: Bacterial viability assay; assay type: cell-based, Acinetobacter baumannii; details: one hour in PBS, CFU, ± SEM
Experimental: as §2, §3

[8] = test system: A. baumannii ATCC BAA1605; assay: Bacterial viability assay; assay type: cell-based, Acinetobacter baumannii; details: one hour in PBS, CFU, ± SEM
Experimental: as §2, §3

E. faecalis MSU#10 = assay: Bacterial viability assay; assay type: cell-based, Enterococcus faecalis; details: E. faecalis MSU#10; one hour in PBS, CFU; ± SEM; read-out: IC50
Experimental: as §2, §3

E. faecalis V583 = assay: Bacterial viability assay; assay type: cell-based, Enterococcus faecalis; details: one hour in PBS, CFU, ± SEM
Experimental: as §2, §3

S. aureus RN4220 = assay: Bacterial viability assay; assay type: cell-based, Staphylococcus aureus; details: one hour in PBS, CFU, ± SEM
Experimental: (§4) Supplementary file pone.0097742.s003.doc: Table S1 Bacterial viability assays. Bacteria were grown at 37°C to mid-log phase (OD600 ∼0.4). The bacteria were diluted to approximately 10^4 to 10^5 colony forming units (CFU) per milliliter and added to a solution of phosphate buffered saline (PBS, 16 mM phosphate, 0.14 M NaCl, pH 7.2) containing the compound at varied concentrations. Samples were incubated at 37°C for one hour and then plated on Luria Bertani (LB) agar at appropriate dilutions in PBS. The plates were incubated overnight at 37°C and colonies enumerated the following day. IC50s were calculated from graphs of CFU as a function of compound concentration. Chlorhexidine was used as a positive control. Included are those guanide (G), biguanide (BG), phenylguanide (ΦG) compounds that had some antibacterial activity in an initial screen at 30 and 100 µM, as well as their and parent amines. Compounds synthesized from 1,4-butanediamine, 1,6-hexanediamine, trisethylaminomelamine, trisbutylaminomelamine, and the dendrimer PAMAM (G0) were not active against E. coli, P aeruginosa, or S. aureus so they were not tested against the remaining bacteria (data not shown). (DOC) Click here for additional data file.
as §4, with “Bacterial” for “Supplementary file pone.0097742.s003.doc: Table S1 Bacterial”, “~0.4).” for “∼0.4).”, “μM,” for “µM,”, “shown).” for “shown). (DOC) Click here for additional data file.”

MRSA USA300 = assay: Bacterial viability assay; assay type: cell-based, Staphylococcus aureus; details: one hour in PBS, CFU, ± SEM
Experimental: as §2, §3

Compound | MIC [1] [µg/mL] | MIC [2] [µg/mL] | MIC [3] [µg/mL] | MIC [4] [µg/mL] | MIC [5] [µg/mL] | MIC [6] [µg/mL] | MIC (MRSA strain LAC, USA300) [µg/mL] | Relative to chlorhexidine (factor by which cytotoxicity was reduced) [7] | CC50 [7] [µg/mL] | IC50 (E. coli K91) [nM] | IC50 (P. aeruginosa PA01) [nM] | IC50 (A. baumannii ATCC 19606) [nM] | IC50 [8] [nM] | IC50 (E. faecalis MSU#10) [nM] | IC50 (E. faecalis V583) [nM] | IC50 (S. aureus RN4220) [nM] | IC50 (MRSA USA300) [nM]
N=C(N)NCCCCCCCCNc1nc(NCCCCCCCCNC(=N)N)nc(NCCCCCCCCNC(=N)N)n1 [TOAM-3G] | >64 | >64 | 16 (≈ 25.2 µM) | 8 (≈ 12.6 µM) | 16 (≈ 25.2 µM) | 2 (≈ 3.15 µM) | 1 (≈ 1.58 µM) | 1.9 | 3.6 (≈ 5.68 µM) | 680 ± 40 | 850 ± 190 | 2600 ± 1100 | 920 ± 100 | 5000 ± 1900 | 23000 ± 14000 | 4700 ± 100 | 1500 ± 600
N=C(NCCCCCCCCNc1nc(NCCCCCCCCNC(=N)Nc2ccccc2)nc(NCCCCCCCCNC(=N)Nc2ccccc2)n1)Nc1ccccc1 [TOAM-3ΦG] | >64 | 4 (≈ 4.64 µM) | 2 (≈ 2.32 µM) | 2 (≈ 2.32 µM) | >64 | 2 (≈ 2.32 µM) | 2 (≈ 2.32 µM) | 1.3 | 2.4 (≈ 2.78 µM) | 330 ± 110 | 1000 ± 300 | 450 ± 230 | 1700 | 1200 ± 100 | 1700 ± 400 | 540 ± 90 | 240 ± 30
NCCCCCCCCNc1nc(NCCCCCCCCN)nc(NCCCCCCCCN)n1 [TOAM] | >64 | >64 | >64 | >64 | 64 (≈ 126 µM) | >64 | 48 (≈ 94.5 µM) | 2.1 | 4.1 (≈ 8.07 µM) | 3900 ± 300 | > 100000 | 3900 ± 2000 | 1300 ± 600 | 77000 ± 30000 | > 100000 | > 100000 | 30000
